Measured values: patent US6900200B2, “Tricyclic hydroxy carboxamides and derivatives thereof tocolytic oxytocin receptor antagonists” (Wyeth, priority 2001, dated 2005)

Target: T1, human vasopressin V1a receptor subtype (Homo sapiens, UniProt P37288)
T1 construct: host or cells: CHO cells; pZeoSV vector for the Thibonnier line
Assay: Vasopressin binding in CHO cell membranes expressing human vasopressin V1a subtype receptors ([3H]Manning ligand radioligand binding)
Settings: @ 100 nM
Text: Vasopressin Binding in Chinese Hamster Ovary Cell Membranes Expressing Human Vasopressin V1a Subtype Receptors
Chinese hamster ovary cells (CHO cells) stably transfected with the human vasopressin V1a subtype receptors were either obtained from BioSignal Inc., 1744 rue Williams, Montreal, Quebec, Canada or obtained from M. Thibonnier, Case Western Reserve University School of Medicine, Cleveland, Ohio.
A. Passaging and Amplification of Cells
CHO cells transfected with the human vasopressin V1a subtype receptors obtained from M. Thibonnier (pZeoSV vector) are allowed to grow to confluency (approx. >90%) in T-150 flasks under sterile conditions, in a cell culture medium of F-12 Nutrient Mixture (HAM) with L-glutamine (Gibco Cat. #11765-054) containing 15 mM HEPES (Gibco Cat. #15630-080), 1% antibiotic/antimycotic (add 5 mL 100×, Gibco Cat. #15240-062 per 500 mL F-12), 250 μg/mL Zeocin (add 1.25 mL of 100 mg/mL Invitrogen R-250-01 per 500 mL F-12) and 10% Fetal Bovine Serum (Qualified, heat inactivated, Gibco Cat. #16140-063). The medium is removed by aspiration and the cells are washed with 10 mL of Hank's Balanced Salt solution (Gibco Cat. #14175-095). The salt solution is removed by aspiration and the cells are trypsinized with 5 mL of trypsin-EDTA (0.05% trypsin, 0.53 mM EDTA-4Na, Gibco Cat. #25300-070) for 1 min. The trypsin is removed by aspiration and the cells dislodged by tapping. Cell Culture medium (e.g. 30 mL for 1:30 split) is immediately added and mixed well to inactivate trypsin. 1 mL of detached cells is added to new culture flasks containing fresh cell culture medium (e.g., into 25 mL per T-150 flask), and mixed gently. The cells are incubated at 37° C. in 5% CO2. The medium is changed at 3 to 4 days interval (or as appropriate). The cells grow to confluency (approx. >75%-95%) within 7-8 days. All steps are done under sterile conditions.
The cells are washed twice gently with Hank's Balanced Salt solution (e.g,. use 10 mL per T-150 flask). The excess is removed and the cells are bathed for 15-30 min. in an enzyme-free Cell Dissociation Buffer (e.g. use 8 mL Hank's Based, Gibco Cat. #13150-016 per T-150 flask) until the cells are loosened. The contents are transferred to centrifuge tubes (50 mL) kept in an ice bath. All subsequent steps are done at 4° C. The tubes are centrifuged at 300×g for 15 min (1380 rpm on SORVAL, Model RT6000D, using the rotor for 50 mL tubes). The supernatant is discarded and the cells suspended in homogenizing buffer(10 mM Tris-HCl containing 0.25 M sucrose and 1 mM EDTA, pH 7.4) ensuring that the volume of the buffer is about ten times the volume of the cell pellet. The cells are pooled into a centrifuge tube (50 mL) and homogenized with Polytron at setting 6 for 10 sec. The homogenate is transferred into a Potter-Elvjehm homogenizer and homogenized with 3 strokes. The homogenate is centrifuged at 1500×g for 10 min at 4° C. (3100 rpm using SORVAL, model RT6000D, using the rotor for 50 mL tubes). The pellet is discarded. The supernatant is centrifuged at 100,000×g for 60 min. at 4° C. (Beckman L8-80M ultracentrifuge; spin at 37,500 rpm with rotor type 70 Ti for 50 mL tubes; 38,000 rpm with type 80Ti for 15 mL tubes; or 35,800 rpm with rotor type 45Ti). The supernantant is discarded and the pellet suspended in 3 to 4 mL of Tris buffer (50 mM TRIS—HCl, pH 7.4). The protein content is estimated by the Bradford or Lowry method. The volume of the membrane suspension is adjusted with the membrane buffer (50 mM Tris-HCl containing 0.1% BSA and 0.1 mM PMSF) to give 3.0 mg/mL (or as appropriate) of protein. The membranes are aliquoted and stored at −70° C.
C. Radioligand Binding Assay […]

T1 sequence (P37288 whole entry): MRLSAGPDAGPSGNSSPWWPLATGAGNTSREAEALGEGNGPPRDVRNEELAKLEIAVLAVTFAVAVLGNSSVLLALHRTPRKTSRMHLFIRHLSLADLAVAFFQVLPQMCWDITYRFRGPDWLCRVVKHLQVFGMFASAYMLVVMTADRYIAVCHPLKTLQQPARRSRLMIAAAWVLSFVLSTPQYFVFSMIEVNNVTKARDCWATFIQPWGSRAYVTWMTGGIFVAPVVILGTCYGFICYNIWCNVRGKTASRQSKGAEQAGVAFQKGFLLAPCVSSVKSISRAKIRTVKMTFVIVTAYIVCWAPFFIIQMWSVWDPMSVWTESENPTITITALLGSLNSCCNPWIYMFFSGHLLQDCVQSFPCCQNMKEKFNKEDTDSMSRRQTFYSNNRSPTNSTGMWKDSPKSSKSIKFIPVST

Q: With `COc1cccc(-c2cc(OC)c(C(=O)N3Cc4ccc(C(=O)N5CCN(CCO)CC5)n4Cc4ccccc43)cc2Cl)c1` [Example 49, {10-[(6-Chloro-3,3′-dimethoxy[1,1′-biphenyl]-4-yl)carbonyl]-10,11-dihydro-5H-pyrrolo[2,1-c][1,4]benzodiazepin-3-yl}[4-(2-hydroxyethyl)-1-piperazinyl]methanone] as the molecule, how does the inhibition at 0.1 µM read?
A: Its inhibition at 0.1 µM is 1%.

Q: With `COc1cc2c(cc1OC)N(C(=O)c1ccc(-c3ccccc3OC)c(C)c1)Cc1ccc(C(=O)N(C)C[C@H](O)[C@@H](O)[C@H](O)[C@H](O)CO)n1C2` [Example 37, 7,8-Dimethoxy-10-[(2′-methoxy-2-methyl-[1,1′-biphenyl]-4-yl)carbonyl]-10,11-dihydro-5H-pyrrolo[2,1-c][1,4]benzodiazepine-3-carboxylic acid methyl-[(2S, 3R, 4R, 5R)-2,3,4,5,6-pentahydroxy-hexyl)-amide] as the molecule, how does the inhibition at 0.1 µM read?
A: The inhibition at 0.1 µM was 6%.

Q: With `COc1cc2c(cc1OC)N(C(=O)c1ccc(-c3ccccc3C(F)(F)F)c(C)c1)Cc1ccc(C(=O)N(CCO)CCO)n1C2` [Example 19, N,N-Bis(2-Hydroxyethyl)-7,8-dimethoxy-10-{[2-methyl-2′-trifluoromethyl-[1,1′-biphenyl]-4-yl]carbonyl}-10,11-dihydro-5H-pyrrolo[2,1-c][1,4]benzodiazepine-3-carboxamide] as the molecule, how does the inhibition at 0.1 µM read?
A: Its inhibition at 0.1 µM is 1%.

Q: How did the inhibition at 0.1 µM turn out when `Cc1ccccc1-c1ccc(C(=O)N2Cc3ccc(C(=O)N4CCN(CCO)CC4)n3Cc3ccccc32)cc1C` [Example 46, {10-[(2,2′-Dimethyl[1,1′-biphenyl]-4-yl)carbonyl]-10,11-dihydro-5H-pyrrolo[2,1-c][1,4]benzodiazepin-3-yl}[4-(2-hydroxyethyl)-1-piperazinyl]methanone] was run?
A: The inhibition at 0.1 µM was 53%.

Q: `COc1ccccc1-c1ccc(C(=O)N2Cc3ccc(C(=O)N(C)C[C@H](O)CO)n3Cc3ccccc32)cc1C` (single isomer, unassigned) [Example 15] was tested. Which inhibition at 0.1 µM did it give?
A: The inhibition at 0.1 µM was 59%.

Q: For `COc1cc(C(=O)N2Cc3ccc(C(=O)N4CCN(CCO)CC4)n3Cc3ccccc32)ccc1-c1ccccc1C` [Example 42, [4-(2-Hydroxyethyl)-1-piperazinyl]{10-[(2-methoxy-2′-methyl[1,1′-biphenyl]-4yl)carbonyl]-10,11-dihydro-5H-pyrrolo[2,1-c][1,4]benzodiazepin-3-yl}methanone], which inhibition at 0.1 µM is on record?
A: The inhibition at 0.1 µM was 49%.

Q: With `COc1ccccc1-c1ccc(C(=O)N2Cc3ccc(C(=O)N4CCN(CCO)CC4)n3Cc3ccccc32)cc1` [Example 47, [4-(2-Hydroxyethyl)-1-piperazinyl]{10-[(2′-methoxy[1,1′-biphenyl]-4-yl)carbonyl]-10,11-dihydro-5H-pyrrolo[2,1-c][1,4]benzodiazepin-3-yl}methanone] as the molecule, how does the inhibition at 0.1 µM read?
A: Its inhibition at 0.1 µM is 12%.

Q: With `Cc1cc(C(=O)N2Cc3ccc(C(=O)N4CCN(CCO)CC4)n3Cc3ccccc32)ccc1-c1ccccc1C(F)(F)F` [Example 48, [4-(2-Hydroxyethyl)-1-piperazinyl](10-{[2-methyl-2′-(trifluoromethyl)[1,1′-biphenyl]-4-yl)carbonyl}-10,11-dihydro-5H-pyrrolo[2,1-c][1,4]benzodiazepin-3-yl)methanone] as the molecule, how does the inhibition at 0.1 µM read?
A: The inhibition at 0.1 µM was 7%.

Q: With `COc1ccccc1-c1ccc(C(=O)N2Cc3ccc(C(=O)N4CCN(CCO)CC4)n3Cc3ccccc32)cc1C` [Example 40, [4-(2-Hydroxyethyl)-1-piperazinyl]{10-[(2′-methoxy-2-methyl[1,1′-biphenyl]-4yl)carbonyl]-10,11-dihydro-5H-pyrrolo[2,1-c][1,4]benzodiazepin-3-yl}methanone] as the molecule, how does the inhibition at 0.1 µM read?
A: Its inhibition at 0.1 µM is 13%.

Same assay, conditions: value printed in parentheses

Q: How did the IC50 turn out when `Cc1cc(C(=O)N2Cc3ccc(C(=O)N(CCO)CCO)n3Cc3ccccc32)ccc1-c1ccccc1C(F)(F)F` [Example 1, 10-[(2-Methyl-2′-trifluoromethyl-[1,1′-biphenyl]-4-yl)carbonyl]-10,11-dihydro-5H-pyrrolo[2,1-c][1,4]benzodiazepine-3-carboxylic acid bis-(2-hydroxy-ethyl)-amide] was run?
A: Its IC50 is 1.39 µM.

Q: With `Cc1cc(C(=O)N2Cc3ccc(C(=O)N(C)C[C@H](O)[C@@H](O)[C@H](O)[C@H](O)CO)n3Cc3ccccc32)ccc1-c1ccccc1C(F)(F)F` [Example 4, 10-[(2-Methyl-2′-trifluoromethyl-[1,1′-biphenyl]-4-yl)carbonyl]-10,11-dihydro-5H-pyrrolo[2,1-c][1,4]benzodiazepine-3-carboxylic acid methyl-((2S,3R,4R,5R)-2,3,4,5,6-pentahydroxy-hexyl)-amide] as the molecule, how does the IC50 read?
A: Its IC50 is 1.43 µM.

Q: `Cc1cc(C(=O)N2Cc3ccc(C(=O)N(C)CC(O)CO)n3Cc3ccccc32)ccc1-c1ccccc1C(F)(F)F` (stereo not drawn) [Example 2, 10-[(2-Methyl-2′-trifluoromethyl-[1,1′-biphenyl]-4-yl)carbonyl]-10,11-dihydro-5H-pyrrolo[2,1-c][1,4]benzodiazepine-3-carboxylic acid (2,3-dihydroxy-propyl)-methyl-amide] was tested. Which IC50 did it give?
A: The IC50 was 0.79 µM.

Q: For `CC(=O)OCC(CN(C)C(=O)c1ccc2n1Cc1ccccc1N(C(=O)c1ccc(-c3ccccc3C(F)(F)F)c(C)c1)C2)OC(C)=O` (stereo not drawn) [Example 13, 2-(Acetyloxy)-1-({methyl[(10-{[2-methyl-2′-trifluoromethyl-[1,1′-biphenyl]-4-yl]carbonyl}-10,11-dihydro-5H-pyrrolo[2,1-c][1,4]benzodiazepin-3-yl)carbonyl]amino}methyl)ethyl acetate], which IC50 is on record?
A: The IC50 was 1.2 µM.

Q: How did the IC50 turn out when `COc1cc(C(=O)N2Cc3ccc(C(=O)N(C)CC(O)CN(C)C)n3Cc3ccccc32)ccc1-c1ccccc1C(F)(F)F` (stereo not drawn) [Example 22, N-[(3-Dimethylamino)-2-hydroxy-propyl]-10-{[2-methoxy-2′-trifluoromethyl-[1,1′-biphenyl]-4-yl]carbonyl}-N-methyl-10,11-dihydro-5H-pyrrolo[2,1-c][1,4]benzodiazepine-3-carboxamide] was run?
A: Its IC50 is 0.227 µM.

Q: `Cc1cc(C(=O)N2Cc3ccc(C(=O)N(C)CC4COC(=O)O4)n3Cc3ccccc32)ccc1-c1ccccc1C(F)(F)F` (stereo not drawn) [Example 11, 10-[(2-Methyl-2′-trifluoromethyl-[1,1′-biphenyl]-4-yl)carbonyl]-10,11-dihydro-5H-pyrrolo[2,1-c][1,4]benzodiazepine-3-carboxylic acid methyl-[(2-oxo-[1,3]dioxolan-4-yl)methyl]-amide] was tested. Which IC50 did it give?
A: Its IC50 is 1.37 µM.

Q: With `COc1ccccc1-c1ccc(C(=O)N2Cc3ccc(C(=O)N(C)CC(O)CO)n3Cc3ccccc32)cc1C` (stereo not drawn) [Example 14, 10-[(2′-Methoxy-2-methyl-[1,1′-biphenyl]-4-yl)carbonyl]-10,11-dihydro-5H-pyrrolo[2,1-c][1,4]benzodiazepine-3-carboxylic acid (2,3-dihydroxy-propyl)-methyl-amide] as the molecule, how does the IC50 read?
A: The IC50 was 0.144 µM.

Q: How did the IC50 turn out when `COc1cc(C(=O)N2Cc3ccc(C(=O)N(C)C[C@@H](O)[C@H](O)[C@H](O)[C@@H](O)CO)n3Cc3ccccc32)ccc1-c1ccccc1C(F)(F)F` (stereo in doubt) [Example 23, 10-{[2-Methoxy-2′-trifluoromethyl-[1,1′-biphenyl]-4-yl]carbonyl}-N-methyl-N-[(2R,3S,4R,5S)-2,3,4,5,6-pentahydroxyhexyl]-10,11-dihydro-5H-pyrrolo[2,1-c][1,4]benzodiazepine-3-carboxamide] was run?
A: The IC50 was 1.08 µM.

Q: For “{(2S)-1-[(10-{[2-Methoxy-2(trifluoromethyl)[1,1′-biphenyl]-4-yl]carbonyl}-10,11-dihydro-5H-pyrrolo[2,1-c][1,4]benzodiazepin-3-yl)carbonyl]pyrrolidin-2-yl}-methanol [Example 36]”, which IC50 is on record?
A: Its IC50 is 1.51 µM.
